Results as given in patent US11524968B2, “Heterocyclic compound as a protein kinase inhibitor” (HK inno.N Corporation, priority 2017, dated 2022).

What follows are compounds tested against JAK1 (Homo sapiens (Human), UniProt P23458) (assay: Analysis of JAK1 activity inhibition ability (ADP-Glo Kinase Assay)). Conditions: JAK1 enzyme, ADP-Glo luminescence, ATP 250 uM, IRS-itide substrate, 30° C. 40 minutes; read-out: IC50.
Assay type: biochemical
Summary of the method: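 JAK1 enzyme, IRS-itide substrate (40 ng/mL) and 250 uM ATP, both as prepared in kinase buffer (Tris-HCl pH 7.5, MgCl2, BSA, DTT), reacted with compound 40 min at 30 °C. ADP formed was detected by ADP-Glo luminescence; IC50 is the concentration giving 50% inhibition versus control.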

JAK1, sequence (P23458 whole entry): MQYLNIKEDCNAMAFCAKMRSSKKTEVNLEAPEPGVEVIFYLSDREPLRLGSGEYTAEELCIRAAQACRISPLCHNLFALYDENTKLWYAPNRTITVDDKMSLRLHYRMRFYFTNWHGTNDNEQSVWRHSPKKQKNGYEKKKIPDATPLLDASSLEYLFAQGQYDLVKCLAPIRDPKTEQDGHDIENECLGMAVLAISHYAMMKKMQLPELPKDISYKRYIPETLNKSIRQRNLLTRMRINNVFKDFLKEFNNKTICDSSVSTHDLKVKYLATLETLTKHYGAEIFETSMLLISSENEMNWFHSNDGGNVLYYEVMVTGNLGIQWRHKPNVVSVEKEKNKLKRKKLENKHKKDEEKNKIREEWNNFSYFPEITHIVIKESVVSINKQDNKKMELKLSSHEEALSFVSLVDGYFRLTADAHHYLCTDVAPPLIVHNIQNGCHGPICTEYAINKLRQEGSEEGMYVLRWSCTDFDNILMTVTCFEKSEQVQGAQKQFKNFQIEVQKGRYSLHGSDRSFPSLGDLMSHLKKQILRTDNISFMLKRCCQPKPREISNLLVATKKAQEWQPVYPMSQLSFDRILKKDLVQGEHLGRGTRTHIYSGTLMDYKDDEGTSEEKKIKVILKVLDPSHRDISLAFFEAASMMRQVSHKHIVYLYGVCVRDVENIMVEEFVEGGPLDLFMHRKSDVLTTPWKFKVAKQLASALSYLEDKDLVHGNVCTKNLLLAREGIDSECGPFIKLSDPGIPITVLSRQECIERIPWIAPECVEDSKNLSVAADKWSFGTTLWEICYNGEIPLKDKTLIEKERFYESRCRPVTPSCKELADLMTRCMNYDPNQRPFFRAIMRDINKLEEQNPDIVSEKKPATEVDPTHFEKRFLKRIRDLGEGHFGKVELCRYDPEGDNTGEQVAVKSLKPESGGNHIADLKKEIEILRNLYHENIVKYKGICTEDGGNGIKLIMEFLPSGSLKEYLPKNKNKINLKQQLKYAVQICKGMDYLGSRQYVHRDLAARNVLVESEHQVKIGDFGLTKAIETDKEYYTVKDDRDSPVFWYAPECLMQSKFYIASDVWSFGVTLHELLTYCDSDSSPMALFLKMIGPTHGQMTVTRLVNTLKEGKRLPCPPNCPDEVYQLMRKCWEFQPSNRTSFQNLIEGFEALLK

First: CCN(C)S(=O)(=O)Nc1ccc(-c2cc(NC(=O)C3CC3)nc3[nH]ccc23)cc1 [Example 215, N-(4-(4-((N-ethyl-N-methylsulfamoyl)amino)phenyl)-1H-pyrrolo[2,3-b]pyridin-6-yl)cyclopropanecarboxamide]
Second: CCS(=O)(=O)Nc1ccc(-c2cc(NC(=S)C3CC3)nc3[nH]ccc23)cc1 [Example 715, N-(4-(4-(ethylsulfonamido)phenyl)-1H-pyrrolo[2,3-b]pyridin-6-yl)cyclopropanecarbothioamide]
The IC50 of the first is lower: < 20 nM for the first, 20 to 200 nM for the second. The first is the more potent here.

CCc1cc(NS(=O)(=O)C2CCC2)ccc1-c1cc(NC(=O)C2CC2)nc2[nH]ccc12 [Example 114, N-(4-(4-(cyclobutanesulfonamido)-2-ethylphenyl)-1H-pyrrolo[2,3-b]pyridin-6-yl)cyclopropanecarboxamide] and CCCS(=O)(=O)Nc1ccc(-c2cc(NC(=O)C3CC3)nc3[nH]ccc23)cc1CC [Example 126, N-(4-(3-ethyl-4-(propylsulfonamido)phenyl)-1H-pyrrolo[2,3-b]pyridin-6-yl)cyclopropanecarboxamide] cannot be ordered by IC50: < 20 nM for the first, < 20 nM for the second.

First: CS(=O)(=O)Nc1ccc(-c2nc(NC(=O)C3CC3)nc3[nH]ccc23)cc1F [Example 201, N-(4-(3-fluoro-4-(methylsulfonamido)phenyl)-7H-pyrrolo[2,3-d]pyrimidin-2-yl)cyclopropanecarboxamide]
Second: CCCCNC(=O)Nc1ccc(-c2nc(NC(=O)C3CC3)nc3[nH]ccc23)cc1 [Example 439, N-(4-(4-(3-butylureido)phenyl)-7H-pyrrolo[2,3-d]pyrimidin-2-yl)cyclopropanecarboxamide]
The IC50 of the first is higher: > 200 nM for the first, 20 to 200 nM for the second. The second is the more potent here.

O=C(Nc1cc(-c2cn(Cc3ccccc3)nn2)c2cc[nH]c2n1)C1CC1 [Example 481, N-(4-(1-benzyl-1H-1,2,3-triazol-4-yl)-1H-pyrrolo[2,3-b]pyridin-6-yl)cyclopropanecarboxamide] and CC1(C)CC(c2cc(NC(=O)C3CC3)nc3[nH]ccc23)=CCN1C(=O)c1ccnc(Cl)c1 [Example 386, N-(4-(1-(2-chloroisonicotinoyl)-2,2-dimethyl-1,2,3,6-tetrahydropyridin-4-yl)-1H-pyrrolo[2,3-b]pyridin-6-yl)cyclopropanecarboxamide] fall in the same range of IC50: 20 to 200 nM for the first, 20 to 200 nM for the second.

Compared with N#CCNC(=O)C1CC=C(c2cc(NC(=O)C3CC3)nc3[nH]ccc23)CC1 (stereo not drawn) [Example 530, N-(cyanomethyl)-4-(6-(cyclopropanecarboxamido)-1H-pyrrolo[2,3-b]pyridin-4-yl)cyclohex-3-ene-1-carboxamide], C[C@@H]1CC(c2cc(NC(=O)C3CC3)nc3[nH]ccc23)=CCN1C(=O)CC#N [Example 389, (R)—N-(4-(1-(2-cyanoacetyl)-2-methyl-1,2,3,6-tetrahydropyridin-4-yl)-1H-pyrrolo[2,3-b]pyridin-6-yl)cyclopropanecarboxamide] is lower in IC50: 20 to 200 nM for the first, < 20 nM for the second. The second is the more potent here.

CC(C)=C(C#N)C(=O)N1CC=C(c2cc(NC(=O)C3CC3)nc3[nH]ccc23)[C@H](C)C1 [Example 408, (S)—N-(4-(1-(2-cyano-3-methylbut-2-enoyl)-3-methyl-1,2,3,6-tetrahydropyridin-4-yl)-1H-pyrrolo[2,3-b]pyridin-6-yl)cyclopropanecarboxamide] and Cc1ncc(C(=O)N2CC=C(c3cc(NC(=O)C4CC4)nc4[nH]ccc34)C(C)C2)s1 (stereo not drawn) [Example 306, N-(4-(3-methyl-1-(2-methylthiazole-5-carbonyl)-1,2,3,6-tetrahydropyridin-4-yl)-1H-pyrrolo[2,3-b]pyridin-6-yl)cyclopropanecarboxamide] fall in the same range of IC50: 20 to 200 nM for the first, 20 to 200 nM for the second.

First: CC1(C)CC(c2cc(NC(=O)C3CC3)nc3[nH]ccc23)=CCN1C(=O)CC#N [Example 387, N-(4-(1-(2-cyanoacetyl)-2,2-dimethyl-1,2,3,6-tetrahydropyridin-4-yl)-1H-pyrrolo[2,3-b]pyridin-6-yl)cyclopropanecarboxamide]
Second: N#CCC(=O)N1CC=C(c2cc(NC(=O)C3CC3)nc3[nH]ccc23)CC12CCC2 [Example 414, N-(4-(5-(2-cyanoacetyl)-5-azaspiro[3.5]non-7-en-8-yl)-1H-pyrrolo[2,3-b]pyridin-6-yl)cyclopropanecarboxamide]
The IC50 of the first is higher: 20 to 200 nM for the first, < 20 nM for the second.

N#Cc1ccc(S(=O)(=O)Nc2ccc(-c3cc(NC(=O)C4CC4)nc4[nH]ccc34)cc2)cn1 [Example 40, N-(4-(4-((6-cyanopyridine)-3-sulfonamido)phenyl)-1H-pyrrolo[2,3-b]pyridin-6-yl)cyclopropanecarboxamide] and CC1CN(S(=O)(=O)Nc2ccc(-c3cc(NC(=O)C4CC4)nc4[nH]ccc34)cc2)CC(C)O1 (stereo not drawn) [Example 220, N-(4-(4-((2,6-dimethylmorpholine)-4-sulfonamido)phenyl)-1H-pyrrolo[2,3-b]pyridin-6-yl)cyclopropanecarboxamide] fall in the same range of IC50: 20 to 200 nM for the first, 20 to 200 nM for the second.

CCCCNC(=S)Nc1ccc(-c2nc(NC(=O)C3CC3)nc3[nH]ccc23)cc1 [Example 465, N-(4-(4-(3-butylthioureido)phenyl)-7H-pyrrolo[2,3-d]pyrimidin-2-yl)cyclopropanecarboxamide] and O=C(Nc1ccc(F)cc1)Nc1ccc(-c2nc(NC(=O)C3CC3)nc3[nH]ccc23)cc1 [Example 441, N-(4-(4-(3-(4-fluorophenyl)ureido)phenyl)-7H-pyrrolo[2,3-d]pyrimidin-2-yl)cyclopropanecarboxamide] fall in the same range of IC50: 20 to 200 nM for the first, 20 to 200 nM for the second.

First: N#CCC1(N2CC=C(c3cc(NC(=O)C4CC4)nc4[nH]ccc34)CC2)CN(C2CCNCC2)C1 [Example 620, N-(4-(1-(3-(cyanomethyl)-1-(piperidin-4-yl)azetidin-3-yl)-1,2,3,6-tetrahydropyridin-4-yl)-1H-pyrrolo[2,3-b]pyridin-6-yl)cyclopropanecarboxamide]
Second: N#C[C@H]1CC1C(=O)N1CC=C(c2cc(NC(=O)C3CC3)nc3[nH]ccc23)CC1 (stereo in doubt) [Example 267, N-(4-(1-((1S,2S)-2-cyanocyclopropane-1-carbonyl)-1,2,3,6-tetrahydropyridin-4-yl)-1H-pyrrolo[2,3-b]pyridin-6-yl)cyclopropanecarboxamide]
The IC50 of the first is higher: > 200 nM for the first, < 20 nM for the second.

C[C@H]1CC(Nc2ccc(-c3cc(NC(=O)C4CC4)nc4[nH]ccc34)cc2)CCN1C(=O)NCC(F)(F)F (stereo partly drawn) [Example 504, (2S)-4-((4-(6-(cyclopropanecarboxamido)-1H-pyrrolo[2,3-b]pyridin-4-yl)phenyl)amino)-2-methyl-N-(2,2,2-trifluoroethyl)piperidine-1-carboxamide] and O=C(Nc1cc(-c2ccc(NC3CCN(C(=O)CC(F)(F)F)CC3)cc2)c2cc[nH]c2n1)C1CC1 [Example 518, N-(4-(4-((1-(3,3,3-trifluoropropanoyl)piperidin-4-yl)amino)phenyl)-1H-pyrrolo[2,3-b]pyridin-6-yl)cyclopropanecarboxamide] cannot be ordered by IC50: > 200 nM for the first, > 200 nM for the second.

Compared with O=C(Nc1cc(C2=CCN(CC(=O)N3CCS(=O)(=O)CC3)CC2)c2cc[nH]c2n1)C1CC1 [Example 578, N-(4-(1-(2-(1,1-dioxidothiomorpholino)-2-oxoethyl)-1,2,3,6-tetrahydropyridin-4-yl)-1H-pyrrolo[2,3-b]pyridin-6-yl)cyclopropanecarboxamide], CCS(=O)(=O)Nc1ccc(-c2cc(NC(=O)C3CC3)nc3c2ccn3C)cc1F [Example 60, N-(4-(4-(ethylsulfonamido)-3-fluorophenyl)-1-methyl-1H-pyrrolo[2,3-b]pyridin-6-yl)cyclopropanecarboxamide] is higher in IC50: 20 to 200 nM for the first, > 200 nM for the second.
